The values that follow come from patent US10233184B2, “7-substituted sulfonimidoylpurinone compounds and derivatives for the treatment and prophylaxis of virus infection” (Hoffmann-La Roche Inc., priority 2016, dated 2019).

In brackets after ≈: the same amount, converted by molar mass. Like-named read-outs stand apart in the source and are kept apart here. Some results are limits rather than exact numbers.

One data set relates to HBV. Briefly: In vivo antiviral efficacy in AAV-HBV mouse model. More on the design: species or system C57BL/6 mice. To be noted: for reduction in HBV DNA / reduction in HBsAg: serum. From the text:
4-6 week old male C57BL/6 mice, specific pathogen free, were purchased from Shanghai Laboratory Animal Center of Chinese Academy of Sciences (SLAC) and housed in an animal care facility in individually ventilated cages under controlled temperature and light conditions following the Institutional Animal Care guidelines. AAV-HBV virus was purchased from Beijing FivePlus Molecular Medicine Institute (Beijing, China). The recombinant virus carries 1.3 copies of the HBV genome packaged into AAV serotype 8 (AAV8) capsids. C57BL/6 mice were injected with 200 μL of the recombinant virus diluted in saline buffer through tail vein. On day 14, the mice were bled to measure HBV surface antigen (HBsAg) and HBV genomic DNA in the serum, and animals were then randomized into groups according to these HBV biomarkers.
Serum HBsAg and HBeAg were measured using CLIA kits (Autobio Diagnostics Co., Ltd., Zhengzhou, China) according to the manufacturer's instructions. The lower limit of detection for HBsAg was 0.05 IU/mL. Serum dilution of 500-fold was used to obtain values within the linear range of the standard curve.
Serum HBV DNA was extracted using a MagNA Pure 96 DNA and Viral NA Small Volume Kit (Roche) following the manufacturer's instructions. The DNA samples were analyzed by real-time quantitative PCR (qPCR) using a HBV-specific primer and probe set for specific amplification and detection of a 128 bp HBV genome region from the nucleotide 2969 to 3096. The sequences of the primers and probe are: […]
Anti-HBs in the serum was tested using Anti-HBs CLIA kits (Autobio Diagnostics Co., Ltd., Zhengzhou, China) and mouse anti-IgG conjugated with Biotin (0.5 mg/mL) from a Mabtech B Elispot kit. The anti-IgG Biotin was diluted in PBS with a final concentration of 1 μg/mL. 25 μL of mouse anti-IgG were mixed with serum samples in wells of the plate in the Anti-HBs CLIA kit for 1-hour incubation. Then wash the plate and add Streptavidin-HRP for 1-hour incubation at room temperature. After repeating the washing step, mix substrate A and B from the CLIA kit and add 50 μL of the mixture in each well. After 5-min incubation at room temperature, the plate was read on an Envision Plate Reader (PerkinElmer) to measure luminecence.
The mouse model with high level expression of both HBV DNA and HBsAg was generated by injecting C57BL/6 mice with a recombinant adeno-associated virus (AAV) carrying a replicable HBV genome (AAV-HBV). With long-lasting HBV viremia and fully competent immune system, the AAV-HBV mouse model was utilized to evaluate the antiviral efficacy of the TLR7 agonists following the study design as shown in Table 3.
Specifically, groups 2 and 3 were orally dosed with Example 43-A at 10 mg/kg every other day (QOD) and once weekly (QW), respectively, and the control group 1 received only Vehicle. At the dosing volume of 10 mL/kg, Example 43-A (1 mg/mL) was formulated as an inclusion complex with 2% Klucel LF, 0.5% TPGS, 0.09% Methylparabens, 0.01% Propylparabens in water. The animals were treated for a total of 42 days, and were submandibularly bled twice per week for serum collection throughout the study. The serum samples were subjected to analysis of HBV biomarkers.
The antiviral efficacy of Example 41-A was evaluated in the same AAV-HBV model following the study design in Table 4 with the same methods to measure HBV biomarkers as described in Example 51.
Specifically, groups 2, 3 and 4 were orally dosed with Example 41-A at 1, 3 and 10 mg/kg QOD respectively. Group 5 was treated with 10 mg/kg QW, while group 1 with only Vehicle. At the dosing volume of 10 mL/kg, Example 41-A (0.1, 0.3, and 1 mg/mL) was formulated as an inclusion complex with 2% Klucel LF, 0.5% TPGS, 0.09% Methylparabens, 0.01% Propylparabens in water. The animals were treated for a total of 42 days, and were submandibularly bled twice per week for serum collection throughout the study. The serum samples were subjected to analysis of HBV biomarkers. […]

The next data set in a line: LYSA solubility study. The data set is classed as physicochemical. To be noted: phosphate buffer, pH 6.5, aqueous buffer, thermodynamic from solid, 0.05M phosphate buffer pH 6.5, read-out: LYSA of Prodrugs. In short, it runs like this: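 Samples from 10 mM DMSO stock were dried, redissolved in 0.05M phosphate buffer pH 6.5, stirred 1 h, shaken 2 h, left overnight and filtered. Filtrate and 1/10 dilution quantified by HPLC-UV; solubility in μg/mL, reported as greater-than when >80% of the maximum sample amount was in solution.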

A short description of data set [1]: Portal vein study: oral PK in PVC/CAC dual cannulated rat. The class given is in vivo. The settings on record: prodrug 10 mg/kg oral, analyte prodrug. As to the method:
Surgery was performed under pentobarbital/isoflurane anesthesia. Briefly, after disinfecting the abdominal area with betadine and 70% isopropyl alcohol, a small abdominal mid-line incision was made. The cecum was pulled out and mesenteric vein was identified and isolated for about 5 mm vessel. A loose ligature was placed proximally and distal end of the vein was ligated. Make a small incision (just enough to allow the insertion of the catheter) on isolated vein and insert the PU catheter towards liver for appropriate length. The catheter was secured in place by tying the loose ligature around the cannulated vessel. The cecum was replaced into abdominal cavity. A hole was made in the right abdominal wall to make the end of catheter pass freely. The catheter was secured by suture on the abdominal wall. The abdominal muscle incision was closed with suture. A small incision was made in the scapular area to serve as the exit site of the catheter. The catheter was subcutaneously tunneled and exteriorized through the scapular incision. A fixed suture was placed in the scapular region. The patency of the catheter was checked and then exteriorized from the subcutaneous space to the dorsal neck region. After gently wiping the area, the abdominal cavity was sutured. The left carotid artery was then cannulated by inserting a PESO catheter. Both the exteriorized catheters were tied firmly on the dorsal neck region and fixed. The animals was then allowed to recover in its cage and used for study at least 3 days after surgery. All catheters were flushed once daily with heparinized saline to maintain patency. Animals were fasted overnight (n=3) and administered vial oral gavage (10 mg/kg, 10 mL/kg). Blood samples (60 μL) were collected simultaneously from the portal and carotid artery catheters at 0.083, 0.25, 0.5, 1, 2, 4, 7, 24 h. All blood samples will be transferred into microcentrifuge tubes containing 2 μL of K2EDTA (0.5M) as anti-coagulant and placed on wet ice. Then blood samples will be processed for plasma by centrifugation at approximately 4° C., 3000 g within half an hour of collection. Plasma samples will be stored in polypropylene tubes, quick frozen over dry ice and kept at −70±10° C. until LC/MS/MS analysis. Pharmacokinetic parameters (mean±SD, n=3) of prodrugs and active forms in portal and carotid samples following oral administration of prodrugs (10 mg/kg) in portal vein cannulated rat were detected and analyzed.

[2] abbreviates: AAV-HBV mice, 10 mg/kg PO QW, 42 days.
Setting [3] is: AAV-HBV mice, 1, 3, 10 mg/kg PO QOD (all three doses).
[4] abbreviates: AAV-HBV mice, 1, 3, 10 mg/kg PO QOD, 42 days.
[5] abbreviates: carotid artery plasma, read-out: AUC0-2 (nM · h), prodrug, Carotid sampling.
Setting [6] is: carotid artery plasma, read-out: Cmax (nM), prodrug, Carotid sampling.
The mark [7] stands for this setting: carotid artery plasma, read-out: Tmax (h), prodrug, Carotid sampling.
The mark [8] stands for this setting: portal vein plasma, read-out: AUC0-2 (nM · h), prodrug, Portal sampling.
Where [9] appears, read: portal vein plasma, read-out: Cmax (nM), prodrug, Portal sampling.
[10] abbreviates: portal vein plasma, read-out: Tmax (h), prodrug, Portal sampling.
Where [11] appears, read: AAV-HBV mice, 1, 3, 10 mg/kg PO QOD, 42 days, all treated groups.
Where [12] appears, read: AAV-HBV mice, 10 mg/kg PO QOD, 42 days.

As usually defined, the Cmax is the highest concentration seen after dosing. One may read the Tmax as the time from dosing to the highest level. For the compound `CCCN(C)C(=O)n1c(=O)n(Cc2ccc(Cl)cc2)c2nc([S@](=N)(=O)CC)nc(N)c21` [Example 41-A, 6-Amino-9-[(4-chlorophenyl)methyl]-2-[S(R)-ethylsulfonimidoyl]-N-methyl-8-oxo-N-propyl-purine-7-carboxamide], in the data set on HBV (setting [2]), the “levels of HBV DNA and HBsAg at the treatment end” value was “undetectable levels”. The “levels of HBV DNA and HBsAg at the end of the 42-day treatment” value (“levels … of the 42-day treatment” for short) in the data set with HBV (setting [3]) is reported as “below or close to the LLOQ”. In addition, in the data set with HBV (AAV-HBV mice, 1, 3, 10 mg/kg PO QOD and 10 mg/kg QW, post treatment, versus Vehicle), the anti-HBsAg antibody level result is “significantly higher levels of antibody against-HbsAg than Vehicle”. In the data set on HBV (setting [4]), the “effect on HBV DNA and HBsAg” value is “dose-dependently reduced HBV DNA and HBsAg”. Also, the solubility thermodynamic in “LYSA solubility study” is 260 µg/mL (≈ 558 µM). The AUC(0-t) in data set [1] (setting [5]) is 0.114 µM·h; in data set [1] (setting [8]), 2.19 µM·h. The Cmax in data set [1] (setting [6]) is 210 nM; in data set [1] (setting [9]), 9700 nM. The time of peak concentration (Tmax) in data set [1] (setting [7]) was determined as 0.19 h; in data set [1] (setting [10]), 0.14 h.
Turning to `CCCN(C)C(=O)n1c(=O)n(Cc2ccc(Cl)cc2)c2nc([S@@](=N)(=O)CC)nc(N)c21` [Example 41-B, 6-Amino-9-[(4-chlorophenyl)methyl]-2-[S(S)-ethylsulfonimidoyl]-N-methyl-8-oxo-N-propyl-purine-7-carboxamide], the “levels … of the 42-day treatment” value in the data set on HBV (setting [3]) is recorded as “below the LLOQ”. For the same compound, in the data set on HBV (setting [4]), the “effect on HBV DNA and HBsAg” value is “all effective to reduce HBV DNA and HBsAg”. Besides, the anti-HBsAg antibody level result with HBV (setting [11]) is “high levels of anti-HBsAg antibody than the Vehicle group”. Also, the solubility thermodynamic in “LYSA solubility study” stood at 250 µg/mL (≈ 537 µM). Further, the AUC(0-t) in data set [1] (setting [5]) stood at 0.0225 µM·h; in data set [1] (setting [8]) it was 1.44 µM·h. Further, the Cmax amounted to 29.6 nM in data set [1] (setting [6]) and 7070 nM in data set [1] (setting [9]). Besides, the Tmax in data set [1] (setting [7]) is 0.25 h; in data set [1] (setting [10]), 0.19 h.
On to `CCN(C)C(=O)n1c(=O)n(Cc2ccc(Cl)cc2)c2nc([S@@](=N)(=O)CC)nc(N)c21` [Example 42-A, 6-Amino-9-[(4-chlorophenyl)methyl]-N-ethyl-2[S(S)-ethylsulfonimidoyl]-N-methyl-8-oxo-purine-7-carboxamide], for which the “levels … of the 42-day treatment” value with HBV (setting [3]) was “below or close to the LLOQ”. For the same compound, in the data set with HBV (setting [4]), the “effect on HBV DNA and HBsAg” value was “all effective to reduce HBV DNA and HBsAg”. For the same compound, in the data set on HBV (setting [11]), the anti-HBsAg antibody level entry is recorded as “significantly higher levels of anti-HBsAg antibody”. Besides, the solubility thermodynamic in “LYSA solubility study” amounted to 225 µg/mL (≈ 498 µM). For the same compound, the AUC(0-t) was determined as 0.286 µM·h in data set [1] (setting [5]) and 3.46 µM·h in data set [1] (setting [8]). The Cmax in data set [1] (setting [6]) was 286 nM; in data set [1] (setting [9]), 8920 nM. The Tmax in data set [1] (setting [7]) was determined as 0.22 h; in data set [1] (setting [10]), 0.19 h.
Take `CCCN(C)C(=O)n1c(=O)n(Cc2ccc(C)cc2)c2nc([S@](=N)(=O)CC)nc(N)c21` [Example 43-A, 6-Amino-2-[S(R)-ethylsulfonimidoyl]-N-methyl-8-oxo-N-propyl-9-(p-tolylmethyl)purine-7-carboxamide]: the “levels … of the 42-day treatment” value in the data set with HBV (AAV-HBV mice, 10 mg/kg PO QOD) was “undetectable and below the lower limit of quantification (LLOQ)”. Further, the “reduction in HBV DNA” value was more than 3 log in the data set with HBV (setting [12]) and more than 2 log in the data set with HBV (setting [2]). For the same compound, the “reduction in HBsAg” value with HBV (setting [12]) and with HBV (setting [2]) was more than 2.8 log in each case. Further, the anti-HBsAg antibody level result in the data set on HBV (AAV-HBV mice, 10 mg/kg PO, regardless of QOD and QW, 42 days) is reported as “induced a considerable level of anti-HBsAg antibody”. For the same compound, in the data set “LYSA solubility study”, the solubility thermodynamic was determined as 203 µg/mL (≈ 456 µM). In addition, the AUC(0-t) in data set [1] (setting [5]) is 0.124 µM·h; in data set [1] (setting [8]), 2.07 µM·h. Moreover, the Cmax in data set [1] (setting [6]) stood at 191 nM; in data set [1] (setting [9]) it was 4110 nM. Besides, the Tmax in data set [1] (setting [7]) amounted to 0.22 h; in data set [1] (setting [10]), 0.28 h.
